Measured values: patent publication US20130244963A1 (Portola Pharmaceuticals, Inc., priority 2010, published 2013)

What was measured:
[1] = system: SU-DHL6; assay: Induction of apoptosis, caspase 3 cleavage; assay type: cell-based
[2] = system: pERK; assay: B cell activity in human whole blood: BCR-induced pERK formation; assay type: cell-based; conditions: healthy normal volunteers, ex vivo
[3] = system: leukocytes; assay: Leukocyte rolling and adhesion in whole blood on collagen type 1 + JAM-C surface; assay type: cell-based, human; conditions: for percentage increase in fluorescence intensity over baseline: Compound 1 3 uM
Text: Junction adhesion molecule C (JAM-C) mediates recruitment and adhesion of leukocytes to synovium of patients with rheumatoid arthritis (Rabquer B J, Arthritis Rheum, 2008; 58(10):3020-9). This is an important step in the etiology of rheumatoid arthritis and disruption of this activity may have therapeutic benefit in the treatment of patients with inflammatory diseases such as RA. In order to use an in-vitro experimental system to mimic migration and adhesion of leukocytes, we have used a collagen and JAM-C coated surface for the assay.
Leukocyte rolling and adhesion in human whole blood (from healthy normal volunteers or patients with rheumatoid arthritis) was monitored using real time fluorescence microscopy. […] Prior to experimentation, leukocytes were labeled in whole blood with Rhodamine 6G to permit visualization by fluorescence microscopy. The increase in fluorescence intensity is proportional to the amount of fluorescently labeled leukocytes recruited under the area of observation. […] For quantitation of inhibitory activity (TABLE), data are presented as percentage increase in fluorescence intensity over baseline 180 and 360 sec post initiation of the blood perfusion (see FIG. 4).

[4] = system: pERK; assay: BCR-induced pERK formation in NHL cell lines; assay type: cell-based; conditions: Homo sapiens
[5] = system: CD69; assay: Whole blood B cell activation (CD69) in RA patients with or without MTX; assay type: cell-based, human; conditions: blood from RA patients on stable doses of MTX (n=18) versus without MTX (n=14); anti IgD activation
Text: In vitro study of whole blood B cell activation (CD69) in stable RA patients treated with MTX (n=18) or without MTX (n=14).

[6] = system: SU-DHL4; assay: Induction of apoptosis, Annexin V binding; assay type: cell-based
[7] = system: SU-DHL6; assay: Induction of apoptosis, Annexin V binding; assay type: cell-based
[8] = system: pBLNK; assay: BCR-induced pBLNK formation in NHL cell lines; assay type: cell-based; conditions: Homo sapiens
[9] = system: SU-DHL4; assay: Induction of apoptosis, caspase 3 cleavage; assay type: cell-based
[10] = system: CD69; assay: B cell activity in human whole blood: BCR-induced CD69 expression; assay type: cell-based; conditions: healthy normal volunteers, ex vivo
[11] = system: Syk (Y525/526); assay: BCR-induced Syk (Y525/526) autophosphorylation in NHL cell lines; assay type: cell-based; conditions: Homo sapiens, SU-DHL-4; SU-DHL4; read-out: BCR-induced Syk (Y525/526) auto-phosphorylation (IC50)
[12] = system: DHL4; assay: Viability of DLBCL cell line DHL4 by luminescent ATP detection (Cell Titer Glo); assay type: cell-based; conditions: single agents; three days; ATP luminescence
Description: The final concentration of solvent (DMSO) during experimental time course was 1%. The robotic system Biomek 2 was used for all pipetting steps. After three days at 37 degrees in a tissue culture incubator, viability of cells was determined by lysis and luminescent ATP detection. ATP detection was carried out by addition of 20 μL Cell Titer Glo (Promega) following the protocol provided by manufacturer.
The concentrations of the inhibitors required to obtain 50, 75 or 90 percent inhibition are plotted in an isobologram (Tallarida R J. Dose response relations in pharmacology, Chapman and Hall/CRC, 2000).

[13] = system: pAKT; assay: BCR-induced pAKT formation in NHL cell lines; assay type: cell-based; conditions: Homo sapiens, Ramos
[14] = system: collagen induced arthritis (CIA); assay: Rat Collagen Induced Arthritis (CIA) Model, hind paw inflammation score; assay type: in vivo; design: scale not given here
Text: Holmdahl R, Lorentzen J C, Lu S, Olofsson P, Wester L, Holmberg J, et al. Arthritis in rats with non-immunogenic adjuvants as models for rheumatoid arthritis. […] On day 10, the rats were boosted with a second subcutaneous injection. Test article administration was initiated when at least one hind paw was inflamed (clinical arthritis score=1) and enrollment into a treatment group was designated as day 1 of the study for each individual animal (n=4 to 8/dose group). Progression of disease was evidenced by increased edema and erythema of one or both ankle joints, followed by the involvement of the metatarsal and interphalangeal joints. […] Hind paws were scored daily (inflammation score) for progression of disease and evaluated for histopathological changes in cartilage structure, cellularity, matrix glycoaminoglycans, and synovial inflammation at the end of the 16-day treatment course. […] In Tables below, mean scores are calculated for all animals in dosed group over the entire experimental time course.

[15] = Lymphocyte counts in rats with bovine collagen antibody mediated inflammation; assay type: in vivo, rat
Text: In 7 control rats treated with vehicle, lymphocyte count was […]. In 4 rats treated with dexamethasone, count=2.32×10^3/μL, p=0.42. However 3 out of 4 of rats did suffer from lymphopenia.

[16] = system: JAK kinases; conditions: cited from earlier work
[17] = target: cKit (Homo sapiens, UniProt P10721); conditions: cited from earlier work
[18] = target: Src kinase (Homo sapiens, UniProt P12931); conditions: cited from earlier work
[19] = target: T1, Flt3 (Homo sapiens, UniProt P36888); conditions: cited from earlier work
T1 sequence (P36888 27-993): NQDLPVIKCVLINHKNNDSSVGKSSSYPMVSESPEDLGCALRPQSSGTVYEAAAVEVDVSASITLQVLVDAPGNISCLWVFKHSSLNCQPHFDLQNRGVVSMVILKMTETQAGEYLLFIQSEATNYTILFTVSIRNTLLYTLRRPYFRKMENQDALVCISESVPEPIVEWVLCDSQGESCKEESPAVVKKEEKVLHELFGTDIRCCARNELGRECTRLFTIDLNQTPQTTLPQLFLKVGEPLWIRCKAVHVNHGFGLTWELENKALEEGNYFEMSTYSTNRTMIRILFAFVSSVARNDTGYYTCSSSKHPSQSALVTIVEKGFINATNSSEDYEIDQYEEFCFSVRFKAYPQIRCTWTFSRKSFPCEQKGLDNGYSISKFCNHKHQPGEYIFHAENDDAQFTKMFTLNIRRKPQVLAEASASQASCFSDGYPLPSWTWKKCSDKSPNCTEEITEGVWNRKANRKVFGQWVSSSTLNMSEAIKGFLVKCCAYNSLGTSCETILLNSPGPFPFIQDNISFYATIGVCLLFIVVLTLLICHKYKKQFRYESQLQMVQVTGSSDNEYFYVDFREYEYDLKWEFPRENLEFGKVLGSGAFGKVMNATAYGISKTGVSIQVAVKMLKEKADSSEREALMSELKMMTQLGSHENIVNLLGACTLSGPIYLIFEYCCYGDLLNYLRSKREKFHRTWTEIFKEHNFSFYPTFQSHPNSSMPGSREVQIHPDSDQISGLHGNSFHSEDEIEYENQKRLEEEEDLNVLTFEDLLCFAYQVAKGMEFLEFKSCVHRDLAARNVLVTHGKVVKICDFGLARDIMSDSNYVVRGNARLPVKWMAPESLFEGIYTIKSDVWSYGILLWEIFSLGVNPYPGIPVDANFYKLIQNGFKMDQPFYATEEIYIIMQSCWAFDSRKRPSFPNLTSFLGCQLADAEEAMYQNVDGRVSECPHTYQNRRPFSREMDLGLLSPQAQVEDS

[20] = Compound 1 5 mg/kg, first experimental design (5/15/50 mg/kg)
[21] = Compound 1 5 mg/kg, second experimental design (5/10/15 mg/kg)
[22] = Compound 1 10 mg/kg, second experimental design (5/10/15 mg/kg)
[23] = Compound 1 15 mg/kg, first experimental design (5/15/50 mg/kg)
[24] = Compound 1 15 mg/kg, second experimental design (5/10/15 mg/kg)
[25] = Compound 1 50 mg/kg, first experimental design (5/15/50 mg/kg)

Src kinase, sequence (P12931 whole entry): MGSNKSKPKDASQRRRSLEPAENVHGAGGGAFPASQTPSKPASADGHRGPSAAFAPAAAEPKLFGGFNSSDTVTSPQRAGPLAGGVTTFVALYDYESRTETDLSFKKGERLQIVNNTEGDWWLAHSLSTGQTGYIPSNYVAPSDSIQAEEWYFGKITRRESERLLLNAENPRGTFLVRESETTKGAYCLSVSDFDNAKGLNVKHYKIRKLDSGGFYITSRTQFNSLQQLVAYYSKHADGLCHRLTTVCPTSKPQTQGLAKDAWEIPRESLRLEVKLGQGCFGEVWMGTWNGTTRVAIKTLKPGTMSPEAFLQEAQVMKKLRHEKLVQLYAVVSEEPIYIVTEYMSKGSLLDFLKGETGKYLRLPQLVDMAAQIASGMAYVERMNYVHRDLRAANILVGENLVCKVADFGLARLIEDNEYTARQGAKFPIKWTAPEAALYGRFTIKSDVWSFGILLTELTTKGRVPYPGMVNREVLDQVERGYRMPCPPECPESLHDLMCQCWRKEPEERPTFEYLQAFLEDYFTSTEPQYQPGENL
cKit, sequence (P10721 26-976): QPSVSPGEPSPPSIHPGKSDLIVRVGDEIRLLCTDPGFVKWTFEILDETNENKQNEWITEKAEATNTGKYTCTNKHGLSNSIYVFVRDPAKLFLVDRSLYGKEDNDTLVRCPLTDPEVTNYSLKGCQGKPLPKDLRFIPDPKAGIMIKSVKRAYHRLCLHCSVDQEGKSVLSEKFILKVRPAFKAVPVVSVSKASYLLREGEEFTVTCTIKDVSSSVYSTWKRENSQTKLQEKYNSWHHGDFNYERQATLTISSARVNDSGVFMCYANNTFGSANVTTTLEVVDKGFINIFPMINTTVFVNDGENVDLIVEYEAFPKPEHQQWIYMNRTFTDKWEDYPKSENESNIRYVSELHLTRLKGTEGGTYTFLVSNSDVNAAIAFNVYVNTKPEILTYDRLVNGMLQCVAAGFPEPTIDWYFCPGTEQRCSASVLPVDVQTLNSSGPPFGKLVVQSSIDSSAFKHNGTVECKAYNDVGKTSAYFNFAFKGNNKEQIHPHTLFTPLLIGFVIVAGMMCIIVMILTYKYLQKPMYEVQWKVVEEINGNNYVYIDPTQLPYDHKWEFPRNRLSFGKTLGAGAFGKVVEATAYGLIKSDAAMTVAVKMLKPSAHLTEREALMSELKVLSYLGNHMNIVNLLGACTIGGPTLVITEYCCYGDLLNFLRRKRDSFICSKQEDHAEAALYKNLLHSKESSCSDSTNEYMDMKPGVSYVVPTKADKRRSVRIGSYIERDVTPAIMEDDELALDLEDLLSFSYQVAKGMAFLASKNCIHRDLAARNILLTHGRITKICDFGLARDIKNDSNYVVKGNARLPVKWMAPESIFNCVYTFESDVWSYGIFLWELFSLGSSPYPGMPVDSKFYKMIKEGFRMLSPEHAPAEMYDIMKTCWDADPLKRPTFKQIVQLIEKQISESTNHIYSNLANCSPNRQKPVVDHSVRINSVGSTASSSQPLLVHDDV

NC(=O)c1cnc(N[C@@H]2CCCC[C@@H]2N)nc1Nc1cccc(-n2nccn2)c1 [Compound 1, 4-(3-(2H-1,2,3-triazol-2-yl)phenylamino)-2-((1R,2S)-2-aminocyclohexylamino)pyrimidine-5-carboxamide]
Induction of apoptosis— caspase 3 cleavage (% +ve cells) [1]: 47 % +ve cells | IC50 [2]: 250 to 500 nM | percentage increase in fluorescence intensity over baseline ([3]; RA patient #8 on Adalimumab, 180 sec, vehicle 51%): 7% | percentage increase in fluorescence intensity over baseline ([3]; RA patient #8 on Adalimumab, 360 sec, vehicle 94%): 63% | percentage increase in fluorescence intensity over baseline ([3]; RA patient #10 on Methotrexate, 180 sec, vehicle 44%): 29% | percentage increase in fluorescence intensity over baseline ([3]; RA patient #10 on Methotrexate, 360 sec, vehicle 107%): 86% | percentage increase in fluorescence intensity over baseline ([3]; RA patient #11 on Methotrexate + prednisone, 180 sec, vehicle 165%): 69% | percentage increase in fluorescence intensity over baseline ([3]; RA patient #11 on Methotrexate + prednisone, 360 sec, vehicle 178%): 183% | percentage increase in fluorescence intensity over baseline ([3]; RA patient #12 on Etanercept, 180 sec, vehicle 61%): 17% | percentage increase in fluorescence intensity over baseline ([3]; RA patient #12 on Etanercept, 360 sec, vehicle 131%): 53% | number of adherent leukocytes (in words) ([3]; whole blood from RA patients (mild, moderate, severe) on standard of care, in vitro addition of 3 uM): reduces the number of adherent cells | number of leukocytes adhering to collagen and JAM-C coated surface (in words) ([3]; whole blood from healthy donors without inflammatory disease): reduces the number of leukocytes adhering | IC50 ([4]; Ramos): 0.05 to 0.125 µM | IC50 ([4]; SU-DHL-6, SU-DHL6): 0.1 µM | Syk inhibitory potency in whole blood B cell activation (CD69) [5]: higher (reduced IC50) | Induction of apoptosis— Annexin V binding (% +ve cells) [6]: 15.5 % +ve cells | Induction of apoptosis— Annexin V binding (% +ve cells) [7]: 20.3 % +ve cells | IC50 ([8]; SU-DHL-4, SU-DHL4): 160 nM | IC50 ([8]; SU-DHL-6, SU-DHL6): 10 to 20 nM | Induction of apoptosis— caspase 3 cleavage (% +ve cells) [9]: 26 % +ve cells | IC50 [10]: 250 to 500 nM | IC50 [11]: […] | inhibitory activity on viability of DHL4 cells (in words) [12]: dose responsive inhibitory activity | IC50 [13]: 0.05 to 0.125 µM | Maximum Inflammation Score measurement [14, 20]: 5.625 | Mean Inflammation Score [14, 20]: 4.868 | Minimum Inflammation Score measurement [14, 20]: 1.5 | Maximum Inflammation Score measurement [14, 21]: 4.75 | Mean Inflammation Score [14, 21]: 3.57 | Minimum Inflammation Score measurement [14, 21]: 1.38 | Maximum Inflammation Score measurement [14, 22]: 3.00 | Mean Inflammation Score [14, 22]: 2.15 | Minimum Inflammation Score measurement [14, 22]: 1.13 | Maximum Inflammation Score measurement [14, 23]: 1.125 | Mean Inflammation Score [14, 23]: 0.949 | Minimum Inflammation Score measurement [14, 23]: 0.75 | Maximum Inflammation Score measurement [14, 24]: 1.38 | Mean Inflammation Score [14, 24]: 1.016 | Minimum Inflammation Score measurement [14, 24]: 0.63 | Maximum Inflammation Score measurement [14, 25]: 1.0 | Mean Inflammation Score [14, 25]: 0.169 | Minimum Inflammation Score measurement [14, 25]: 0 | effect on lymphocyte counts ([15]; administered as a single agent): does not produce a reduction in lymphocyte counts

C[C@@H]1C[C@H]2[C@@H]3CCC4=CC(=O)C=C[C@]4(C)[C@@]3(F)[C@@H](O)C[C@]2(C)[C@@]1(O)C(=O)CO [Dexamethasone, reference compound]
Maximum Inflammation Score measurement ([14]; Dexamethasone 1 mg/Kg): 1.50 | Mean Inflammation Score ([14]; Dexamethasone 1 mg/Kg): 0.188 | Minimum Inflammation Score measurement ([14]; Dexamethasone 1 mg/Kg): 0.0 | rats suffering from lymphopenia ([15]; Lewis, rat, in vivo, 16 day): 3 out of 4 | lymphocyte count (group) ([15]; rat, in vivo): 2320 µL⁻¹

COc1cccc2c1C(=O)c1c(O)c3c(c(O)c1C2=O)C[C@@](O)(C(=O)CO)C[C@@H]3O[C@H]1C[C@H](N)[C@H](O)[C@H](C)O1 [Doxorubicin, reference compound]
inhibitory activity on viability of DHL4 cells (in words) [12]: dose responsive inhibitory activity

COc1cc(Nc2ncc(F)c(Nc3ccc4c(n3)N(COP(=O)(O)O)C(=O)C(C)(C)O4)n2)cc(OC)c1OC [Fostamatinib disodium]
activity against JAK kinases [16]: active | activity against cKit [17]: active | activity against Src kinase [18]: not against Src kinsase | activity against Flt3 [19]: active

CN(Cc1cnc2nc(N)nc(N)c2n1)c1ccc(C(=O)N[C@@H](CCC(=O)O)C(=O)O)cc1 [Methotrexate, reference compound]
Maximum Inflammation Score measurement ([14]; Methotrexate 0.1 mg/kg): 4.63 | Minimum Inflammation Score measurement ([14]; Methotrexate 0.1 mg/kg): 1.25 | Mean Inflammation Score ([14]; Methotrexate 0.1 mg/kg, all animals over entire time course): 3.65 | Maximum Inflammation Score measurement ([14]; Methotrexate 0.3 mg/kg): 5.00 | Minimum Inflammation Score measurement ([14]; Methotrexate 0.3 mg/kg): 1.00 | Mean Inflammation Score ([14]; Methotrexate 0.3 mg/kg, all animals over entire time course): 4.02 | Maximum Inflammation Score measurement ([14]; Methotrexate 1.0 mg/kg): 4.00 | Minimum Inflammation Score measurement ([14]; Methotrexate 1.0 mg/kg): 1.13 | Mean Inflammation Score ([14]; Methotrexate 1.0 mg/kg, all animals over entire time course): 2.90 | Maximum Inflammation Score measurement ([14]; Methotrexate 2.0 mg/kg): 2.50 | Minimum Inflammation Score measurement ([14]; Methotrexate 2.0 mg/kg): 1.00 | Mean Inflammation Score ([14]; Methotrexate 2.0 mg/kg, all animals over entire time course): 2.11
